{"source": "patent US20240368226A1", "about": "“Cyclic Cell Penetrating Peptides For Treating Neisseria Gonorrhoeae Infections” (priority 2023, published 2024)", "key": {"[1]": {"test_system": "End1/E6E7 endocervical cells", "assay": "LDH release cytotoxicity, End1/E6E7", "assay_type": "cell-based, human", "set-up": "cytotoxicity, End1/E6E7: unit of the concentration uncertain", "procedure": "(§1) To determine whether the CPPs were cytotoxic for human cells, the relative amount of LDH released from immortalized End1/E6E7 endocervical cells, ME 180 cervical cells and THP-1 monocytic cells was measured following 18 h treatment (FIG. 9A-C). […] The cytotoxicity of the endogenous AMP LL-37 was analyzed as a comparator.\n(§2) We analyzed the levels of lactate dehydrogenase (LDH) released from dying human End1/E6E7 epithelial endocervical cells1, ME-180 epithelial cervical2, and THP-1 monocytes due to cytotoxicity from exposure to the CPP structural analogs or LL-37 using the Cyquant LDH Cytotoxicity Assay Kit (Invitrogen ThermoFisher Scientific). The THP-1 cells were activated overnight by incubation with 10 ng/ml of phorbol myristate acetate (PMA; Sigma-Aldrich). After washing, cells were trypsinized, and then 1.0×10^4 cells in 100-μL media were plated per well in 96-well plates. For the activated THP-1 and ME-180 cells, Opti-MEM (Gibco) with 1% FBS was used. For the End1/E6E7 cells Keratinocyte-Scrum Free Media (ThermoFisher Scientific) with supplements was used. After plating, the activated THP-1 cells were incubated for 4-5 h and the End1/E6E7 and ME-180-cells were incubated overnight. Next stock solutions of the CPPs or LL-37 were diluted in PBS and aliquots were added to wells to create final concentrations of 100 and 200 μM of the CPPs, or 20 and 40 μM of LL-37 in total volumes of 100 μL per well. Negative control wells were treated with vehicle only, which was 1% DMSO in media. Vehicle controls for LL-37 were wells with Opti-MEM with 1% FBS only. After adding the test reagents, plates were gently mixed and incubated at 37° C. and 5% CO2 for 18 h. Positive control wells were treated with 10 μL of the Triton X-100 Lysis Buffer provided with the Cyquant kit according to the directions of the vendor. Then the levels of LDH in supernatants were quantified using a kit (Roche, Mannheim, DE, USA) with detection on an Epoch (Biotek Instruments, Winooski, Vermont, USA) microtiter plate reader at 490 nm with 680 nm subtracted. The results were reported as the percentage of LDH released from cells treated with LL-37 or CPP relative to LDH released from control cells treated with vehicle-only."}, "[2]": {"test_system": "invasion of ME-180 cells by FA1090 1-81-S2 gonococci", "assay": "Invasion of human cervical epithelial cells by gonococci", "assay_type": "cell-based", "conditions": "LL-37 20 μM; moi of 5; 4 h", "procedure": "Because the CPP was bactericidal for N. gonorrhoeae and, furthermore, could penetrate the bacteria, it was postulated that treatment may prevent invasion of human epithelial cells. Therefore, the effect of the CPP on the invasion of a human cervical epithelial cell line, ME-180, was tested using the AMP LL-37 for comparison. FA1090 1-81-S2 gonococci at a moi of 5 were incubated with ME-180 cells in 96-well plates with vehicle only, LL-37 (20 μM), or the CPP (100 μM) for 4 h."}, "ME-180 cervical cells": {"test_system": "ME-180 cervical cells", "assay": "LDH release cytotoxicity, ME-180", "assay_type": "cell-based, human", "set-up": "cytotoxicity, ME-180: unit of the concentration uncertain", "procedure": "as §1, §2"}, "[3]": {"test_system": "activated THP-1 monocytic cells", "assay": "LDH release cytotoxicity, THP-1", "assay_type": "cell-based, human", "set-up": "cytotoxicity, THP-1: unit of the concentration uncertain", "conditions": "for cytotoxicity, THP-1: 100 (unit uncertain)", "procedure": "as §1, §2"}, "sheep red blood cells": {"test_system": "sheep red blood cells", "assay_type": "cell-based", "procedure": "In vitro assessment of hemolysis is important in determining the potential cytotoxicity of any material or drug that would be in contact with blood. Various protocols for determining hemolytic potential have been reported. A procedure recommended for analysis of the hemolytic potential of drug substances for RBCs using 0.1% Triton as the positive control and a 1 h incubation period was performed.\nThe CPPs or the vehicle (DMSO and 0.1% Triton X-100), were diluted in PBS. Washed pooled sheep red blood cells (sRBCs; Rockland, R405-0050, 10% v/v) were diluted to 2.1% in PBS. Then 190 μL of the cell suspension was added to the wells of a 96-well plate (Corning CellBIND). Solutions (10 μL) containing the linear or DE or TE cyclized forms of the CPP at 4,000 or 2,000 μM or the DMSO and PBS vehicle were added to wells with sRBCs in triplicate. As a positive control three wells were treated with 10 μL of 2% Triton X-100. The 96 well plates were incubated at 37° C. and 5% CO2 for 1 h, and then centrifugated at 1,000×g for 5 min. Supernatant (100 μL) was transferred to a new plate and then analyzed on the Epoch microtiter plate reader at 405-nm. Results are expressed as % hemolysis, which was calculated according to the following equation: % hemolysis=[(405 nm absorbance (Abs) of RBCs in the peptide solution-405 nm Abs in PBS)/(405 nm Abs in 0.1% Triton X-100-405 nm ABs in PBS]×100. Values of >25% hemolysis were defined as poor, 10-25% medium, and <10% as non-hemolytic according to recommended guidelines."}, "[4]": {"test_system": "S. aureus strains 8325-4 and Newman", "assay_type": "cell-based, Staphylococcus aureus", "procedure": "The sensitivity of a Gram positive species was also tested.\nN. flavescens strain 4322, N. lactamica strain 1934, and N. subflava strain 52, were available from the collections of the late Dr. Herman Schneider of the Walter Reed Army Institute of Research and of the Neisseria Repository that was formerly housed at UC Berkeley. The 8325-4 and Newman are strains of S. aureus. The latter is β-hemolytic.\nS. aureus were grown overnight on Difco GC agar containing 1% BBL Isovitalex Enrichment. Using a sterile cotton swab, bacterial colonies were placed in suspension in GC broth containing 1% BBL Isovitalex. Absorbance of the bacterial suspension at 595 nm was determined to enable dilution to approximately 4×10^6 cells/mL in GC broth. Aliquots of the suspension containing 8×10^5 bacteria along with the CPPs, diluted from stock solutions in DMSO, were added in GC broth containing 1% BBL Isovitalex to make a total volume of 200 μL/well. Bacteria in GC broth with Isovitalex and 1% DMSO were added to vehicle-only control wells. […] After incubation in 5% CO2 at 37° C. for 18 h, plates were analyzed at 600-nm on an Epoch microtiter plate reader. The percentage inhibition of each sample was determined relative to the absorbance of the blank (GC broth only) and the vehicle-only controls. […] If no growth was observed on the plate, then that test concentration was determined to be inhibitory."}, "[5]": {"conditions": "in vivo; cited from earlier work"}}, "note": "Where a SMILES comes first, the peptide text is derived from it. Bridges are numbered along the chain shown (N, C = ends). [ ]: non-standard residue; d: D form. Ahx = NCCCCCC(=O)O", "data": [{"compound": "LL-37 [reference compound]", "values": [{"measurement": "LDH levels, End1/E6E7", "setting": "[1]; LL-37 20 µM, 18 h", "value": "more than doubled"}, {"measurement": "cytotoxicity, End1/E6E7", "setting": "[1]; LL-37 20 and 40 mM", "value": "significant cytotoxicity"}, {"measurement": "invasion of ME-180 cells", "setting": "[2]", "value": "completely inhibited invasion"}, {"measurement": "LDH levels, ME-180", "setting": "ME-180 cervical cells; LL-37 20 µM, 18 h", "value": "more than doubled"}, {"measurement": "cytotoxicity, ME-180", "setting": "ME-180 cervical cells; LL-37 20 and 40 mM", "value": "significant cytotoxicity"}, {"measurement": "levels of cell death compared to the vehicle-only control, THP-1", "setting": "[3]; 20 or 40 μM LL-37, 18 h, p<0.001", "value": "more than doubled"}]}, {"compound": "N=C(N)NCCC[C@@H]1NC(=O)CSC[C@@H](C(N)=O)NC(=O)[C@H](CCCNC(=N)N)NC(=O)CCCCCNC(=O)[C@H](CCCNC(=N)N)NC(=O)[C@H](CCCNC(=N)N)NC(=O)CCCCCNC(=O)[C@H](CCCNC(=N)N)NC(=O)[C@H](CCCNC(=N)N)NC(=O)CCCCCNC(=O)[C@H](CCCNC(=N)N)NC(=O)[C@H](CCCNC(=N)N)NC(=O)CCCCCNC1=O", "note": "[TE cyclized CPP, c [RXRRXRRXRRXRC(S—)]] ({CH2CO}-R[Ahx]RR[Ahx]RR[Ahx]RR[Ahx]RC-NH2; thioether N-13)", "values": [{"measurement": "cytotoxicity compared to DS cyclized CPP, End1/E6E7", "setting": "[1]; 200 μM, 18 h", "value": "less cytotoxic compared to the DS cyclized CPP"}, {"measurement": "cytotoxicity compared to linear CPP, End1/E6E7", "setting": "[1]; 200 μM, 18 h", "value": "less cytotoxic compared to the linear CPP"}, {"measurement": "cytotoxicity, End1/E6E7", "setting": "[1]; 100 (unit uncertain)", "value": "virtually no cytotoxicity"}, {"measurement": "hemolysis of sheep RBCs", "setting": "sheep red blood cells", "value": "no hemolysis"}, {"measurement": "cytotoxicity compared to DS cyclized CPP, ME-180", "setting": "ME-180 cervical cells; 200 μM, 18 h", "value": "less cytotoxic compared to the DS cyclized CPP"}, {"measurement": "cytotoxicity, ME-180", "setting": "ME-180 cervical cells; 100 (unit uncertain)", "value": "virtually no cytotoxicity"}, {"measurement": "MIC for S. aureus", "setting": "[4]", "value": "> 100", "unit": "µM"}, {"measurement": "cytotoxicity compared to DS cyclized CPP, THP-1", "setting": "[3]; 200 μM, 18 h", "value": "less cytotoxic compared to the DS cyclized CPP"}, {"measurement": "cytotoxicity compared to linear CPP, THP-1", "setting": "[3]; 200 μM, 18 h", "value": "more cytotoxic"}, {"measurement": "cytotoxicity, THP-1", "setting": "[3]", "value": "virtually no cytotoxicity"}]}, {"compound": "N=C(N)NCCC[C@H](NC(=O)CCCCCNC(=O)[C@H](CCCNC(=N)N)NC(=O)[C@H](CCCNC(=N)N)NC(=O)CCCCCNC(=O)[C@H](CCCNC(=N)N)NC(=O)[C@H](CCCNC(=N)N)NC(=O)CCCCCNC(=O)[C@H](CCCNC(=N)N)NC(=O)[C@H](CCCNC(=N)N)NC(=O)CCCCCNC(=O)[C@@H](N)CCCNC(=N)N)C(=O)O", "note": "[linear CPP, RXRRXRRXRRXR, reference compound] (H-R[Ahx]RR[Ahx]RR[Ahx]RR[Ahx]R-OH)", "values": [{"measurement": "cytotoxicity, End1/E6E7", "setting": "[1]; 100 (unit uncertain)", "value": "virtually no cytotoxicity"}, {"measurement": "hemolysis of sheep RBCs", "setting": "sheep red blood cells", "value": "no hemolysis"}, {"measurement": "cytotoxicity, ME-180", "setting": "ME-180 cervical cells; 100 (unit uncertain)", "value": "virtually no cytotoxicity"}, {"measurement": "cytotoxicity, THP-1", "setting": "[3]", "value": "virtually no cytotoxicity"}, {"measurement": "cell death (LDH released), THP-1", "setting": "[3]; 100 or 200 μM, 18 h", "value": "not significantly increased"}]}, {"compound": "N=C(N)NCCC[C@@H]1NC(=O)CCCCCNC(=O)[C@H](CCCNC(=N)N)NC(=O)[C@H](CCCNC(=N)N)NC(=O)CCCCCNC(=O)[C@H](CCCNC(=N)N)NC(=O)[C@H](CCCNC(=N)N)NC(=O)CCCCCNC(=O)[C@H](CCCNC(=N)N)NC(=O)[C@H](CCCNC(=N)N)NC(=O)CCCCCNC(=O)[C@H](CCCNC(=N)N)NC(=O)[C@@H](N)CSSC[C@@H](C(N)=O)NC1=O", "note": "[DS cyclized CPP, CRXRRXRRXRRXRC—NH2] (H-CR[Ahx]RR[Ahx]RR[Ahx]RR[Ahx]RC-NH2; disulfide 1-14)", "values": [{"measurement": "percentage of dead cells compared to the Triton X-100 treated controls, End1/E6E7", "setting": "[1]; 100 and 200 mM", "value": "less than 20%"}, {"measurement": "hemolysis of sheep RBCs", "setting": "sheep red blood cells", "value": "no hemolysis"}, {"measurement": "percentage of dead cells compared to the Triton X-100 treated controls, ME-180", "setting": "ME-180 cervical cells; 100 and 200 mM", "value": "less than 20%"}, {"measurement": "cell death (LDH), THP-1", "setting": "[3]; 100 µM, 18 h", "value": "significantly increased"}, {"measurement": "percentage of dead cells compared to the Triton X-100 treated controls, THP-1", "setting": "[3]; 100 and 200 mM", "value": "less than 20%"}]}, {"compound": "CC(=O)N[C@H](CSSC[C@H](N)C(=O)O)C(=O)N[C@H](C)C(=O)N[C@H](CCCNC(=N)N)C(=O)N[C@H](CCCNC(=N)N)C(=O)N[C@H](CCCNC(=N)N)C(=O)N[C@H](C)C(=O)N[C@H](CCCNC(=N)N)C(N)=O", "note": "[etelcalcetide]", "values": [{"measurement": "effective half-life", "setting": "[5]", "value": "72 to 96", "unit": "h"}]}]}
